From ChEMBL document CHEMBL1144460, “Design, synthesis, and structural analysis of inhibitors of influenza neuraminidase containing a 2,3-disubstituted tetrahydrofuran-5-carboxylic acid core” (Bioorg Med Chem Lett, 2005) come the findings set out here.

For the test, the target named is Neuraminidase (Influenza B virus (strain B/Lee/1940), UniProt P03474). Description: Inhibitory concentration of the compound was determined against neuraminidase B (B/Memphis/3/89) of Influenza virus.
Neuraminidase, sequence (P03474 whole entry): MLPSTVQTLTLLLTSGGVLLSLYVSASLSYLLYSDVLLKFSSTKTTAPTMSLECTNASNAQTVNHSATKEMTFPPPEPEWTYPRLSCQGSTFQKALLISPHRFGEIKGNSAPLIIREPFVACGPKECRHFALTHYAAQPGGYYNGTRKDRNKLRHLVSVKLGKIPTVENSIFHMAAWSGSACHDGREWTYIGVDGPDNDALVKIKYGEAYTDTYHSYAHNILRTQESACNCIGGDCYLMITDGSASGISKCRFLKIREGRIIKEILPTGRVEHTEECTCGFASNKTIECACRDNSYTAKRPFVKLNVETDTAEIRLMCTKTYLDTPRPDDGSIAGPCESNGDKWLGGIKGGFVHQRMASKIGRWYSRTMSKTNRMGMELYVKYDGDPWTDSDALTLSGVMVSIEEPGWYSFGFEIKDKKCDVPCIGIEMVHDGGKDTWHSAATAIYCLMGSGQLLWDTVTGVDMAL
Usually IC50 stands for the concentration that inhibits the measured activity by half. `CC(=O)N[C@@H](CC(C)C)[C@@H]1O[C@@H](C(=O)O)C[C@H]1c1c[nH]cn1` registered a 50% inhibitory concentration (IC50) of 1 µM. In other words, the single-digit micromolar range.

With `COC(=O)[C@@H]1C[C@H](C(=O)O)N[C@H]1[C@H](CC(C)C)NC(C)=O`, 0.056 µM corresponded to half-maximal inhibition (IC50).

The molecule `COC(=O)[C@@H]1C[C@H](C(=O)O)O[C@H]1[C@H](CC(C)C)NC(C)=O` returned an IC50 of 0.96 µM.
